Results on nine compounds are retold here after PubChem BioAssay (NCI).

Several values for one entry are separate records, joined by “and”; a condition that tells them apart may be missing. Equal entries are not always repeated.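 Grown in 96-well plates, cells were treated for 48 hours with each compound at five concentrations. Insufficient inhibition: endpoint recorded as highest concentration tested. GI50 = concentration required for 50% inhibition of growth. Definition used: TGI = concentration required for complete inhibition of growth.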 Bounds are passed on as bounds.

Some test systems named below: A549 NSCLC; CCRF-CEM leukemia; HOP-62 NSCLC; OVCAR-3 ovarian; OVCAR-4 ovarian; SF-268 CNS; SW-620 colon; UO-31 renal.
Holding throughout (experiment): NCI-60 cell line screen, 48 h

As for `O=C(Nc1ccc(Br)c(Cl)c1)c1cc(F)ccc1O`, the GI50 in the assay on A549 NSCLC is 1.75 µM; in the assay with CCRF-CEM leukemia it was 1430 nM; in the assay with HOP-62 NSCLC, 893 nM; in the assay on OVCAR-3 ovarian it was 481 nM; in the assay with OVCAR-4 ovarian it was 974 nM; in the assay with SF-268 CNS, 996 nM. In addition, the GI50 was 1200 nM in the assay on SW-620 colon and 153 nM in the assay on UO-31 renal. For the same compound, the TGI in the assay with A549 NSCLC was over 50 µM; with CCRF-CEM leukemia, over 15.1 µM; with HOP-62 NSCLC, over 13.2 µM; in the assay with OVCAR-3 ovarian it was over 50 µM; in the assay on OVCAR-4 ovarian, over 50 µM; in the assay on SF-268 CNS it was over 33.6 µM. The TGI in the assay on SW-620 colon turned out to be 9.67 µM; with UO-31 renal, 1.89 µM.

Take `O=C1C=CC2(C=C1)CCN=c1c(O)c3c(c(O)c12)=NC=N3`: the GI50 in the assay with A549 NSCLC was 17.9 µM and > 100 µM; in the assay with HOP-62 NSCLC, 16300 nM and > 100000 nM; in the assay with OVCAR-4 ovarian, 15900 nM and > 100000 nM; in the assay with SW-620 colon it was 10100 nM and > 100000 nM; in the assay with UO-31 renal it was 14500 nM and > 100000 nM. The TGI is 39.2 µM and > 100 µM in the assay on A549 NSCLC; over 100 µM in the assay with CCRF-CEM leukemia; 30.3 µM and > 100 µM with HOP-62 NSCLC; 25 µM and > 100 µM in the assay with OVCAR-3 ovarian; 29.7 µM and > 100 µM with OVCAR-4 ovarian; 26.8 µM and > 100 µM in the assay with SF-268 CNS. For the same compound, the TGI in the assay on SW-620 colon is 32.2 µM and > 100 µM; with UO-31 renal, 30.5 µM and > 100 µM.

With `CN1CCN(Cc2ccc(Nc3ncc(Cl)c(Nc4ccccc4S(=O)(=O)N(C)C)n3)cc2)CC1`, the GI50 was 0.0365 µM with A549 NSCLC; under 18.7 nM with CCRF-CEM leukemia; 34.4 nM in the assay with HOP-62 NSCLC; 61 nM in the assay on OVCAR-3 ovarian; 72 nM with OVCAR-4 ovarian; 99.7 nM in the assay with SF-268 CNS. For the same compound, the GI50 is 25.4 nM in the assay with SW-620 colon and 38.7 nM in the assay on UO-31 renal. The TGI was 1.7 µM in the assay on A549 NSCLC; over 100 µM with CCRF-CEM leukemia; 0.9 µM in the assay on HOP-62 NSCLC; over 100 µM with OVCAR-3 ovarian; 0.649 µM in the assay on OVCAR-4 ovarian; 1.02 µM with SF-268 CNS. The figures for the TGI in the assay on SW-620 colon and in the assay on UO-31 renal were over 100 µM and 1.4 µM, respectively.

As for `COC(=O)C#Cc1ccc([N+](=O)[O-])cc1`, the TGI amounted to 7.44 µM in the assay on A549 NSCLC; 2.27 µM in the assay on CCRF-CEM leukemia; 6.87 µM in the assay with HOP-62 NSCLC; 2.93 µM in the assay with OVCAR-3 ovarian; 3.5 µM in the assay with OVCAR-4 ovarian; 14 µM with SF-268 CNS. The TGI with SW-620 colon amounted to 3.78 µM; with UO-31 renal, 2.85 µM.

`CN(C)CC1CCn2c(c(C3=C(c4cn(C)c5ccccc45)C(=O)NC3=O)c3ccccc32)C1` (configuration not stated): the GI50 in the assay on A549 NSCLC is 4.5 µM; in the assay on CCRF-CEM leukemia, 6410 nM; in the assay on HOP-62 NSCLC, 4550 nM; with OVCAR-3 ovarian, 3910 nM; with OVCAR-4 ovarian, 4320 nM; with SF-268 CNS it was 3840 nM. Besides, the results for the GI50 in the assay with SW-620 colon and in the assay with UO-31 renal were 4160 nM and 2690 nM, respectively. In addition, the TGI in the assay with A549 NSCLC turned out to be 9.06 µM; in the assay on CCRF-CEM leukemia, 24.2 µM; in the assay on HOP-62 NSCLC, 8.91 µM; with OVCAR-3 ovarian, 8.15 µM; in the assay with OVCAR-4 ovarian it was 9.3 µM; in the assay on SF-268 CNS, 7.97 µM. The TGI is 8.32 µM in the assay on SW-620 colon and 5.96 µM in the assay on UO-31 renal.

`COc1cccc2c1c1nc3cc(C)c(C)cc3nc1n2CCN(C)C`: the GI50 with A549 NSCLC is 1.99 µM; in the assay with CCRF-CEM leukemia, 1810 nM; with HOP-62 NSCLC, 1720 nM; in the assay with OVCAR-3 ovarian it was 2220 nM; in the assay with OVCAR-4 ovarian, 2060 nM; in the assay with SF-268 CNS, 2130 nM. In addition, the GI50 is 805 nM with SW-620 colon and 337 nM in the assay with UO-31 renal. The TGI with A549 NSCLC came to 12 µM; with CCRF-CEM leukemia, 7.3 µM; with HOP-62 NSCLC, 11 µM; in the assay on OVCAR-4 ovarian it was 8.6 µM; in the assay on SF-268 CNS, 7.45 µM; in the assay on SW-620 colon, 11.3 µM. In the assay on UO-31 renal, this compound yielded a TGI of 2.37 µM.

For the compound `Cc1ccc(C(=O)NC2CCCCC2)cc1-c1ccc(C(=O)NCC2CC2)cc1`, the GI50 in the assay with A549 NSCLC was 12.4 µM; in the assay on CCRF-CEM leukemia it was over 25000 nM; in the assay with HOP-62 NSCLC, over 25000 nM; in the assay with OVCAR-3 ovarian, over 23000 nM; with OVCAR-4 ovarian, over 25000 nM; in the assay with SF-268 CNS, over 25000 nM. Moreover, the GI50 is over 25000 nM with SW-620 colon and over 19900 nM in the assay on UO-31 renal. Moreover, the TGI in the assay with A549 NSCLC, with CCRF-CEM leukemia, with HOP-62 NSCLC, in the assay with OVCAR-3 ovarian, with OVCAR-4 ovarian and with SF-268 CNS was over 25 µM in each case. The TGI in the assay with SW-620 colon and with UO-31 renal was over 25 µM in each case.

As for `CO[C@H](C(=O)N[C@@H](CCCCNC(=O)OCc1ccccc1)C(=O)OC(C)(C)C)[C@@H]1Cc2cc3cc(OC4CC(OC5CC(O)C(O)C(C)O5)C(O)C(C)O4)c(C)c(O)c3c(O)c2C(=O)[C@H]1OC1CC(OC2CC(OC3CC(C)(O)C(O)C(C)O3)C(O)C(C)O2)C(O)C(C)O1` (some centres not stated), the GI50 in the assay on A549 NSCLC was 0.821 µM; in the assay on CCRF-CEM leukemia, 404 nM; with HOP-62 NSCLC, 464 nM; with OVCAR-3 ovarian it was 1390 nM; with OVCAR-4 ovarian, 3000 nM; in the assay on SF-268 CNS it was 624 nM. In addition, the GI50 was 441 nM in the assay on SW-620 colon and 1570 nM in the assay with UO-31 renal. Also, the TGI is 5.28 µM in the assay on A549 NSCLC; 5.07 µM with CCRF-CEM leukemia; 2.73 µM with HOP-62 NSCLC; over 10 µM in the assay on OVCAR-3 ovarian; over 10 µM in the assay on OVCAR-4 ovarian; 2.03 µM in the assay with SF-268 CNS. Also, the figures for the TGI with SW-620 colon and with UO-31 renal were 3.34 µM and 8.18 µM, respectively.

Take `Cc1ccc(NC(=O)c2ccnc(N3CCCC3)c2)cc1-c1ccc(C(=O)NCC2CC2)cc1`: the GI50 in the assay on A549 NSCLC was over 25 µM; with CCRF-CEM leukemia it was over 25000 nM; in the assay on HOP-62 NSCLC, over 25000 nM; in the assay with OVCAR-3 ovarian it was over 25000 nM; with OVCAR-4 ovarian, over 25000 nM; in the assay with SF-268 CNS it was over 25000 nM. Further, the GI50 with SW-620 colon and in the assay on UO-31 renal was over 25000 nM each time. Also, the TGI with A549 NSCLC, in the assay with CCRF-CEM leukemia, in the assay on HOP-62 NSCLC, in the assay on OVCAR-3 ovarian, with OVCAR-4 ovarian and in the assay on SF-268 CNS was over 25 µM each time. For the same compound, the TGI in the assay on SW-620 colon and in the assay on UO-31 renal was over 25 µM in each case.
